Measured values as given in patent US20260285888A1, “HETEROCYCLIC COMPOUND AND USE THEREOF” (OTSUKA PHARMACEUTICAL CO., LTD., priority 2023, published 2026).

How the values were obtained:
[1] = Study for confirmation of conversion to brexpiprazole in a buffer (stability of the evaluation compounds); type: physicochemical; settings: in buffer, average of duplicate; for Concentration of brexpiprazole formed: 60-minute reaction sample; for Concentration of evaluation compound decreased: decrease in 60-minute vs 0-minute reaction sample
In short: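 Compounds (final 1 μmol/L, from 100 μmol/L working solutions) incubated in buffer at 37° C. for 0 or 60 min, in duplicate, after 3 min pre-incubation of the reaction solution. Reactions stopped with acetonitrile/isopropanol (4:1) containing internal standards; compound and formed brexpiprazole quantified against 0.01–1 μmol/L calibration samples.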

in vitro = type: cell-based, human; settings: human, differentiated hl-60 cells, 300 μmol/L, about 24 hours, PMA-differentiated HL-60 cells, LDH; no-treatment 0%, cell lysis buffer 100%; read-out: cytotoxicity (%) Evaluation compound results
In short: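 HL-60 cells differentiated ~72 h with 10 nM PMA, then exposed ~24 h to compound at 300 μmol/L final in RPMI with 2% FBS. LDH release in supernatant gave cytotoxicity % scaled between untreated (0%) and lysis-buffer (100%) groups; triplicate.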

| Concentration of brexpiprazole formed [1] [nM] | Concentration of evaluation compound decreased [1] [nM] | Compound | cytotoxicity at 24 h, 300 µM (in vitro) [%] |
| --- | --- | --- | --- |
| 0 | 70 | CCOC(=O)C(CC)OP(=O)([O-])OC[N+]1(CCCCOc2ccc3ccc(=O)[nH]c3c2)CCN(c2cccc3sccc23)CC1 (stereo not drawn) [EX 110, (4-(benzo[b]thiophen-4-yl)-1-(4-((2-oxo-1,2-dihydroquinolin-7-yl)oxy)butyl)piperazin-1-ium-1-yl)methyl (1-ethoxy-1-oxobutan-2-yl) phosphate] | -3 |
| 0 | 20 | CCOC(=O)C[C@@H](OP(=O)([O-])OC[N+]1(CCCCOc2ccc3ccc(=O)[nH]c3c2)CCN(c2cccc3sccc23)CC1)C(=O)OCC [EX 111, (R)-(4-(benzo[b]thiophen-4-yl)-1-(4-((2-oxo-1,2-dihydroquinolin-7-yl)oxy)butyl)piperazin-1-ium-1-yl)methyl (1,4-diethoxy-1,4-dioxobutan-2-yl) phosphate] | 0 |
| 0 | 160 | O=c1ccc2ccc(OCCCC[N+]3(COP(=O)([O-])OCCCCCCl)CCN(c4cccc5sccc45)CC3)cc2[nH]1 [EX 113, (4-(benzo[b]thiophen-4-yl)-1-(4-((2-oxo-1,2-dihydroquinolin-7-yl)oxy)butyl)piperazin-1-ium-1-yl)methyl (5-chloropentyl) phosphate] | 10 |
| 0 | 90 | C[C@@H]1CN(CCOP(=O)([O-])OC[N+]2(CCCCOc3ccc4ccc(=O)[nH]c4c3)CCN(c3cccc4sccc34)CC2)C[C@H](C)O1 [EX 116, (4-(benzo[b]thiophen-4-yl)-1-(4-((2-oxo-1,2-dihydroquinolin-7-yl)oxy)butyl)piperazin-1-ium-1-yl)methyl (2-((2S,6R)-2,6-dimethylmorpholino)ethyl) phosphate] | -9 |
| 0 | 50 | CN1CCN(CCOP(=O)([O-])OC[N+]2(CCCCOc3ccc4ccc(=O)[nH]c4c3)CCN(c3cccc4sccc34)CC2)CC1 [EX 117, (4-(benzo[b]thiophen-4-yl)-1-(4-((2-oxo-1,2-dihydroquinolin-7-yl)oxy)butyl)piperazin-1-ium-1-yl)methyl (2-(4-methylpiperazin-1-yl)ethyl) phosphate] | -7 |
| 0 | 60 | O=c1ccc2ccc(OCCCC[N+]3(COP(=O)([O-])OCCN4CCCCC4)CCN(c4cccc5sccc45)CC3)cc2[nH]1 [EX 118, (4-(benzo[b]thiophen-4-yl)-1-(4-((2-oxo-1,2-dihydroquinolin-7-yl)oxy)butyl)piperazin-1-ium-1-yl)methyl (2-(piperidin-1-yl)ethyl) phosphate] | -8 |
| 0 | 140 | O=c1ccc2ccc(OCCCC[N+]3(COP(=O)([O-])OCCN4CCC(F)(F)CC4)CCN(c4cccc5sccc45)CC3)cc2[nH]1 [EX 119, (4-(benzo[b]thiophen-4-yl)-1-(4-((2-oxo-1,2-dihydroquinolin-7-yl)oxy)butyl)piperazin-1-ium-1-yl)methyl (2-(4,4-difluoropiperidin-1-yl)ethyl) phosphate] | 2 |
| 0 | 50 | CCC(=O)OCOP(=O)([O-])OC[N+]1(CCCCOc2ccc3ccc(=O)[nH]c3c2)CCN(c2cccc3sccc23)CC1 [EX 120, (4-(benzo[b]thiophen-4-yl)-1-(4-((2-oxo-1,2-dihydroquinolin-7-yl)oxy)butyl)piperazin-1-ium-1-yl)methyl ((propionyloxy)methyl) phosphate] | 13 |
| 0 | -110 | CCCC(C)(C)C(=O)OCOP(=O)([O-])OC[N+]1(CCCCOc2ccc3ccc(=O)[nH]c3c2)CCN(c2cccc3sccc23)CC1 [EX 123, (4-(benzo[b]thiophen-4-yl)-1-(4-((2-oxo-1.2-dihydroquinolin-7-yl)oxy)butyl)piperazin-1-ium-1-yl)methyl (((2,2-dimethylpentanoyl)oxy)methyl) phosphate] | -8 |
| 0 | 130 | O=C(CCO)OCOP(=O)([O-])OC[N+]1(CCCCOc2ccc3ccc(=O)[nH]c3c2)CCN(c2cccc3sccc23)CC1 [EX 125, (4-(benzo[b]thiophen-4-yl)-1-(4-((2-oxo-1,2-dihydroquinolin-7-yl)oxy)butyl)piperazin-1-ium-1-yl)methyl (((3-hydroxypropanoyl)oxy)methyl) phosphate] | -7 |
| 0 | 160 | O=C(CCCCCO)OCOP(=O)([O-])OC[N+]1(CCCCOc2ccc3ccc(=O)[nH]c3c2)CCN(c2cccc3sccc23)CC1 [EX 126, (4-(benzo[b]thiophen-4-yl)-1-(4-((2-oxo-1,2-dihydroquinolin-7-yl)oxy)butyl)piperazin-1-ium-1-yl)methyl (6-hydroxyhexanoyl)oxy)methyl) phosphate] | -7 |
| 0 | 40 | O=C(OCOP(=O)([O-])OC[N+]1(CCCCOc2ccc3ccc(=O)[nH]c3c2)CCN(c2cccc3sccc23)CC1)C1CCOCC1 [EX 127, (4-(benzo[b]thiophen-4-yl)-1-(4-((2-oxo-1,2-dihydroquinolin-7-yl)oxy)butyl)piperazin-1-ium-1-yl)methyl (((tetrahydro-2H-pyran-4-carbonyl)oxy)methyl) phosphate] | 0 |
| 0 | 90 | CCOC(=O)OCOP(=O)([O-])OC[N+]1(CCCCOc2ccc3ccc(=O)[nH]c3c2)CCN(c2cccc3sccc23)CC1 [EX 129, (4-(benzo[b]thiophen-4-yl)-1-(4-(((2-oxo-1,2-dihydroquinolin-7-yl)oxy)butyl)piperazin-1-ium-1-yl)methyl (((ethoxycarbonyl)oxy)methyl) phosphate] | -4 |
| 0 | -20 | CC(C)OC(=O)OCOP(=O)([O-])OC[N+]1(CCCCOc2ccc3ccc(=O)[nH]c3c2)CCN(c2cccc3sccc23)CC1 [EX 130, (4-(benzo[b]thiophen-4-yl)-1-(4-((2-oxo-1,2-dihydroquinolin-7-yl)oxy)butyl)piperazin-1-ium-1-yl)methyl (isopropoxycarbonyl)oxy)methyl) phosphate] | 1 |
| 0 | 130 | CCOCCOC(=O)OCOP(=O)([O-])OC[N+]1(CCCCOc2ccc3ccc(=O)[nH]c3c2)CCN(c2cccc3sccc23)CC1 [EX 132, (4-(benzo[b]thiophen-4-yl)-1-(4-((2-oxo-1,2-dihydroquinolin-7-yl)oxy)butyl)piperazin-1-ium-1-yl)methyl ((((2-ethoxyethoxy)carbonyl)oxy)methyl) phosphate] | -7 |
| 0 | 140 | CC(C)OCCOC(=O)OCOP(=O)([O-])OC[N+]1(CCCCOc2ccc3ccc(=O)[nH]c3c2)CCN(c2cccc3sccc23)CC1 [EX 133, (4-(benzo[b]thiophen-4-yl)-1-(4-((2-oxo-1,2-dihydroquinolin-7-yl)oxy)butyl)piperazin-1-ium-1-yl)methyl ((((2-isopropoxyethyloxy)carbonyl)oxy)methyl) phosphate] | -5 |

| Compound | Concentration of brexpiprazole formed [1] [nM] | Concentration of evaluation compound decreased [1] [nM] | cytotoxicity at 24 h, 300 µM (in vitro) [%] |
| --- | --- | --- | --- |
| CC(C)COC(=O)[C@@H](C)OP(=O)([O-])OC[N+]1(CCCCOc2ccc3ccc(=O)[nH]c3c2)CCN(c2cccc3sccc23)CC1 [EX 107, (R)-(4-(benzo[b]thiophen-4-yl)-1-(4-((2-oxo-1,2-dihydroquinolin-7-yl)oxy)butyl)piperazin-1-ium-1-yl)methyl (1-isobutoxy-1-oxopropan-2-yl) phosphate] | 0 | 70 | -6 |
| CCC(CC)COC(=O)[C@@H](C)OP(=O)([O-])OC[N+]1(CCCCOc2ccc3ccc(=O)[nH]c3c2)CCN(c2cccc3sccc23)CC1 [EX 108, (R)-(4-(benzo[b]thiophen-4-yl)-1-(4-((2-oxo-1,2-dihydroquinolin-7-yl)oxy)butyl)piperazin-1-ium-1-yl)methyl (1-(2-ethylbutoxy)-1-oxopropan-2-yl) phosphate] | 0 | 80 | -7 |
| CC(C)(C)OC(=O)NC(C)(C)C(=O)OCOP(=O)([O-])OC[N+]1(CCCCOc2ccc3ccc(=O)[nH]c3c2)CCN(c2cccc3sccc23)CC1 [EX 128, (4-(benzo[b]thiophen-4-yl)-1-(4-((2-oxo-1,2-dihydroquinolin-7-yl)oxy)butyl)piperazin-1-ium-1-yl)methyl (((2-(tert-butoxycarbonyl)amino)-2-methylpropanoyl)oxy)methyl) phosphate] | 0 | -30 | 2 |
